From US20180055032A1, “ODORS FOR PSYLLID TRAPPING, REPELLING AND CONTROL” (The Regents of the University of California, priority 2011, published 2018)
Read-outs that look alike come from different tables or passages of the source.

How the values were obtained:
ACP [1] = conditions: small plot field trial, cited from earlier work
[2] = tested on: neuron 2A (rhinarial plate on flagellomere 2); assay: single-sensillum electrophysiology, odor response of neuron 2A; type: cell-based, Diaphorina citri; conditions: Table 1; odor diluted to 1%, 50 μL in cartridge; note: key: 0, no response; +, >50 spikes/second; ++, >100 spikes/second; +++, >150 spikes/second
[3] = tested on: neuron 2B (rhinarial plate on flagellomere 2); assay: single-sensillum electrophysiology, odor response of neuron 2B; type: cell-based, Diaphorina citri; conditions: Table 1; odor diluted to 1%, 50 μL in cartridge
[4] = tested on: neuron 2C (rhinarial plate on flagellomere 2); assay: single-sensillum electrophysiology, odor response of neuron 2C; type: cell-based, Diaphorina citri; conditions: Table 1; odor diluted to 1%, 50 μL in cartridge
[5] = tested on: neuron 4A (rhinarial plate on flagellomere 4); assay: single-sensillum electrophysiology, odor response of neuron 4A; type: cell-based, Diaphorina citri; conditions: Table 1; odor diluted to 1%, 50 μL in cartridge
[6] = tested on: neuron 4B (rhinarial plate on flagellomere 4); type: cell-based, Diaphorina citri
[7] = tested on: neuron 4C (rhinarial plate on flagellomere 4); assay: single-sensillum electrophysiology, odor response of neuron 4C; type: cell-based, Diaphorina citri; conditions: Table 1; odor diluted to 1%, 50 μL in cartridge
[8] = tested on: neuron 6A (rhinarial plate on flagellomere 6); assay: single-sensillum electrophysiology, odor response of neuron 6A; type: cell-based, Diaphorina citri; conditions: Table 1; odor diluted to 1%, 50 μL in cartridge
[9] = tested on: neuron 6B (rhinarial plate on flagellomere 6); assay: single-sensillum electrophysiology, odor response of neuron 6B; type: cell-based, Diaphorina citri; conditions: Table 1; odor diluted to 1%, 50 μL in cartridge
[10] = tested on: neuron 6C (rhinarial plate on flagellomere 6); assay: single-sensillum electrophysiology, odor response of neuron 6C; type: cell-based, Diaphorina citri; conditions: Table 1; odor diluted to 1%, 50 μL in cartridge
[11] = tested on: neuron 7A (rhinarial plate on flagellomere 7); assay: single-sensillum electrophysiology, odor response of neuron 7A; type: cell-based, Diaphorina citri; conditions: Table 1; odor diluted to 1%, 50 μL in cartridge; note: key: 0, no response; +, >50 spikes/second; ++, >100 spikes/second; +++, >150 spikes/second
[12] = tested on: neuron 7B (rhinarial plate on flagellomere 7); type: cell-based, Diaphorina citri
[13] = tested on: neuron 7C (rhinarial plate on flagellomere 7); assay: single-sensillum electrophysiology, odor response of neuron 7C; type: cell-based, Diaphorina citri; conditions: Table 1; odor diluted to 1%, 50 μL in cartridge
ACP [14] = conditions: cited from earlier work
[15] = Table 1, odor diluted to 1%, 50 μL in cartridge

Compound | reduction in ACP densities (ACP [1]; low psyllid density area (average 3-4 ACP/10 trees)) [%] | duration of reduction in ACP densities (ACP [1]) | odor response (frequency of action potentials during stimulus minus baseline), 2A [2] | odor response (frequency of action potentials during stimulus minus baseline), 2B [3] | odor response (frequency of action potentials during stimulus minus baseline), 2C [4] | odor response (frequency of action potentials during stimulus minus baseline), 4A [5] | odor response (frequency of action potentials during stimulus minus baseline), 4B [6, 15] | odor response (frequency of action potentials during stimulus minus baseline), 4C [7] | odor response (frequency of action potentials during stimulus minus baseline), 6A [8] | odor response (frequency of action potentials during stimulus minus baseline), 6B [9] | odor response (frequency of action potentials during stimulus minus baseline), 6C [10] | odor response (frequency of action potentials during stimulus minus baseline), 7A [11] | odor response (frequency of action potentials during stimulus minus baseline), 7B [12, 15] | odor response (frequency of action potentials during stimulus minus baseline), 7C [13] | ACP behavior in lab behavior assays (ACP [14]; at lower concentration) | ACP behavior in laboratory behavioral assays (ACP [14]; high amounts, as released by citrus plants under physical stress) | odor response (frequency of action potentials during stimulus minus baseline), 4B [6] | odor response (frequency of action potentials during stimulus minus baseline), 7B [12]
CSSC [DMDS, dimethyl disulfide] | 65 | up to three | – | – | – | – | – | – | – | – | – | – | – | – | – | – | – | –
COC(=O)c1ccccc1O [methyl salicylate] | – | – | 0 | 0 | 0 | 0 | + (+, >50 spikes/second) | 0 | 0 | + (+, >50 spikes/second) | 0 | 0 | + (+, >50 spikes/second) | 0 | attracted | repellency | – | –
O [water] | – | – | 0 | 0 | 0 | 0 | – | + (+, >50 spikes/second) | 0 | 0 | + (+, >50 spikes/second) | 0 | – | 0 | – | – | 0 | 0
C/C1=C\CC/C(C)=C/CC(C)(C)/C=C/C1 [α-humulene] | – | – | 0 | ++ (++, >100 spikes/second) | 0 | 0 | 0 | 0 | 0 | 0 | 0 | 0 | ++ (++, >100 spikes/second) | 0 | – | – | – | –
CC1=CC=C(C(C)C)CC1 [α-terpinene] | – | – | 0 | 0 | 0 | 0 | ++ (++, >100 spikes/second) | 0 | 0 | ++ (++, >100 spikes/second) | 0 | 0 | 0 | 0 | – | – | – | –
C=C1CC/C=C(\C)CC[C@@H]2[C@@H]1CC2(C)C [β-caryophyllene] | – | – | 0 | ++ (++, >100 spikes/second) | 0 | 0 | 0 | 0 | 0 | 0 | 0 | 0 | + (+, >50 spikes/second) | 0 | – | – | – | –
CC1=CCC(C(C)C)=CC1 [γ-terpinene] | – | – | 0 | 0 | 0 | 0 | +++ (+++, >150 spikes/second) | 0 | 0 | ++ (++, >100 spikes/second) | 0 | 0 | 0 | 0 | – | – | – | –
CC1=CCC2C(C1)C2(C)C (stereo not shown) [δ-3-carene] | – | – | 0 | 0 | 0 | 0 | ++ (++, >100 spikes/second) | 0 | 0 | ++ (++, >100 spikes/second) | 0 | 0 | 0 | 0 | – | – | – | –
(−)-limonene | – | – | 0 | 0 | 0 | 0 | + (+, >50 spikes/second) | 0 | 0 | + (+, >50 spikes/second) | 0 | 0 | 0 | 0 | – | – | – | –
